Assay results taken from patent US20190010167A1, “INHIBITORS OF THE MENIN-MLL INTERACTION” (Vitae Pharmaceuticals, Inc., priority 2015, published 2019).

These compounds were tested against T1, wild-type menin / MLL-AF9 fusion protein (Homo sapiens, UniProt O00255) (assay: AlphaLISA menin/MLL binding assay, wild-type menin (Assay 1)). Details: biotinylated wild-type menin 5 nM, MLL-AF9-FLAG lysate.
T1 construct: made in house; host or cells: E. coli (menin); HEK293 cleared lysate (MLL-AF9-FLAG)
T1 sequence (O00255 1-610): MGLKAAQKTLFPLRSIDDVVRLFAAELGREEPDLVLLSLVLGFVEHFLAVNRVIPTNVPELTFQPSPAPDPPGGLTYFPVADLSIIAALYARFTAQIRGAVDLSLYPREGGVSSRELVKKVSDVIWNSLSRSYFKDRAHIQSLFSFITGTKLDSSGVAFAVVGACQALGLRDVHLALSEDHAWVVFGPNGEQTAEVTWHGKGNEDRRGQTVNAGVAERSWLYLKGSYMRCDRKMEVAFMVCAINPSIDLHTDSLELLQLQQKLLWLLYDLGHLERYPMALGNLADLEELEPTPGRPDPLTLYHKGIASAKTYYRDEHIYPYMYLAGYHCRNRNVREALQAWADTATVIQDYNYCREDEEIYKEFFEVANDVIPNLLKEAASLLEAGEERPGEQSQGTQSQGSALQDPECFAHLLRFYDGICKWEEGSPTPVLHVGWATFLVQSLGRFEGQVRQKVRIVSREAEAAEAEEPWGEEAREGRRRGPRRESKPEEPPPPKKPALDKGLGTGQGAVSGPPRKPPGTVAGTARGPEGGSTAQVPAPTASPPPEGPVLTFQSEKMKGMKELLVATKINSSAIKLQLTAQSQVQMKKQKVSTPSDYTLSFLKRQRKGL
Procedure: Potencies of inhibitor compounds against menin/MLL binding were assessed by AlphaLISA assay using biotinylated (1) wild-type menin or (2) mutated menin (described in Nature (2012) Vol. 482, pp. 542-548) and MLL-AF9 fusion protein bearing a FLAG epitope at its C-terminus. Menin proteins were expressed in E. coli and covalently modified with biotin using EZ-Link™ Sulfo-NHS-Biotin (ThermoFisher Cat. No. 21217) according to manufacturer's protocol. MLL1-1,396 fused to AF91-92 and the C-terminal FLAG peptide was expressed in HEK293 cells and used as a lysate cleared at 21,000×g for 10 min.
Compounds (2 μL of solutions in DMSO) were dispensed in white 96-well half-area plates (Corning Cat. No. 3693) and incubated for 30 min at RT with 5 nM biotinylated menin and appropriate amount of MLL-AF9-FLAG lysate in 40 μL of 50 mM Tris-HCl buffer pH 7.4 containing 5% (v/v) DMSO, 50 mM NaCl, 0.01% (w/v) bovine serum albumin (BSA) and 1 mM DTT. To this incubation mixture, 40 μl of AlphaLISA anti-FLAG acceptor (PerkinElmer Cat. No. AL112C) and streptavidin donor (PerkinElmer Cat. No. 6760002) beads (10 μg/mL each) was added and incubation continued at RT for 60 min. Alpha (amplified luminescent proximity homogeneous assay) signal was measured on an Envision multi-label plate reader at the end of the incubation. All steps were conducted under dim fluorescent light.
These percent inhibition values were regressed against compound concentrations in the assay using four parameter logit non-linear curve fitting (XLFit, IDBS). The IC50 values were derived from the curve fitting as inflection points on the dose-response curves and are set out in Table 1 below.

Structure (SMILES)	IC50 [µM]
CC(=O)N[C@H]1CC[C@@H](CN2CCC3(CCN(c4ncnc5sc(CC(F)(F)F)cc45)C3)C2)CC1 (some centres unmarked) [Example 50, N-((1s,4s)-4-((7-(6-(2,2,2-Trifluoroethyl)thieno[2,3-d]pyrimidin-4-yl)-2,7-diazaspiro[4.4]nonan-2-yl)methyl)cyclohexyl)acetamide]	0.1 to 1
COC(=O)N[C@H]1CC[C@@H](CN2CCC3(CCN(c4ncnc5sc(CC(F)(F)F)cc45)C3)C2)CC1 (some centres unmarked) [Example 51, Methyl ((1s,4s)-4-((7-(6-(2,2,2-trifluoroethyl)thieno[2,3-d]pyrimidin-4-yl)-2,7-diazaspiro[4.4]nonan-2-yl)methyl)cyclohexyl)carbamate]	0.1 to 1
COC(=O)Nc1cccc(CN2CCC3(CCN(c4ncnc5sc(CC(F)(F)F)cc45)C3)C2)c1 (centres unmarked) [Example 53, methyl (3-((7-(6-(2,2,2-trifluoroethyl)thieno[2,3-d]pyrimidin-4-yl)-2,7-diazaspiro[4.4]nonan-2-yl)methyl)phenyl)carbamate]	< 0.1
O=C(C1CCCCN1)N1CCC2(CCN(c3ncnc4sc(CC(F)(F)F)cc34)C2)C1 (centres unmarked) [Example 56, piperidin-2-yl(7-(6-(2,2,2-trifluoroethyl)thieno[2,3-d]pyrimidin-4-yl)-2,7-diazaspiro[4.4]nonan-2-yl)methanone]	0.1 to 1
O=C([C@@H]1CCCN1)N1CCC2(CCN(c3ncnc4sc(CC(F)(F)F)cc34)C2)C1 (some centres unmarked) [Example 57, 4-(7-prolyl-2,7-diazaspiro[4.4]nonan-2-yl)-6-(2,2,2-trifluoroethyl)thieno[2,3-d]pyrimidine]	0.1 to 1
O=C1N(Cc2ccccc2)CCC12CCN(c1ncnc3sc(CC(F)(F)F)cc13)C2 (centres unmarked) [Example 59, 2-benzyl-7-(6-(2,2,2-trifluoroethyl)thieno[2,3-d]pyrimidin-4-yl)-2,7-diazaspiro[4.4]nonan-1-one]	≥ 1
CS(=O)(=O)c1ccc(CC(=O)N2CC3(C2)CN(c2ncnc4sc(CC(F)(F)F)cc24)C3)cc1 [Example 62, 2-(4-(methylsulfonyl)phenyl)-1-(6-(6-(2,2,2-trifluoroethyl)thieno[2,3-d]pyrimidin-4-yl)-2,6-diazaspiro[3.3]heptan-2-yl)ethan-1-one]	0.1 to 1
CC1(C)CCC(CN2CC3(C2)CN(c2ncnc4sc(CC(F)(F)F)cc24)C3)CC1 [Example 64, 4-(6-((4,4-dimethylcyclohexyl)methyl)-2,6-diazaspiro[3.3]heptan-2-yl)-6-(2,2,2-trifluoroethyl)thieno[2,3-d]pyrimidine]	0.1 to 1
Cc1c(CN2CC3(C2)CN(c2ncnc4sc(CC(F)(F)F)cc24)C3)ccc2[nH]c(C#N)cc12 [Example 67, 4-methyl-5-((6-(6-(2,2,2-trifluoroethyl)thieno[2,3-d]pyrimidin-4-yl)-2,6-diazaspiro[3.3]heptan-2-yl)methyl)-1H-indole-2-carbonitrile]	0.1 to 1
FC(F)(F)Cc1cc2c(N3CC4(CN(CC5CCC(F)(F)CC5)C4)C3)ncnc2s1 [Example 70, 4-(6-((4,4-difluorocyclohexyl)methyl)-2,6-diazaspiro[3.3]heptan-2-yl)-6-(2,2,2-trifluoroethyl)thieno[2,3-d]pyrimidine]	0.1 to 1
CCS(=O)(=O)N[C@H]1CC[C@H](CN2CC3(C2)CN(c2ncnc4sc(CC(F)(F)F)cc24)C3)CC1 [Example 71, N-((1r,4r)-4-((6-(6-(2,2,2-trifluoroethyl)thieno[2,3-d]pyrimidin-4-yl)-2,6-diazaspiro[3.3]heptan-2-yl)methyl)cyclohexyl)ethanesulfonamide]	0.1 to 1
O=S(=O)(N[C@H]1CC[C@H](CN2CC3(C2)CN(c2ncnc4sc(CC(F)(F)F)cc24)C3)CC1)C1CC1 [Example 72, N-((1r,4r)-4-((6-(6-(2,2,2-trifluoroethyl)thieno[2,3-d]pyrimidin-4-yl)-2,6-diazaspiro[3.3]heptan-2-yl)methyl)cyclohexyl)cyclopropanesulfonamide]	0.1 to 1
CC(C)(N)CC(=O)N1CC2(C1)CN(c1ncnc3sc(CC(F)(F)F)cc13)C2 [Example 77, 3-amino-3-methyl-1-(6-(6-(2,2,2-trifluoroethyl)thieno[2,3-d]pyrimidin-4-yl)-2,6-diazaspiro[3.3]heptan-2-yl)butan-1-one]	0.1 to 1
O=C(C1CCCCN1)N1CC2(C1)CN(c1ncnc3sc(CC(F)(F)F)cc13)C2 (centres unmarked) [Example 79, piperidin-2-yl(6-(6-(2,2,2-trifluoroethyl)thieno[2,3-d]pyrimidin-4-yl)-2,6-diazaspiro[3.3]heptan-2-yl)methanone]	0.1 to 1
Cc1c(CN2CCC3(CCN(c4ncnc5sc(CC(F)(F)F)nc45)C3)C2)ccc2[nH]c(C#N)cc12 (centres unmarked) [Example 83, 4-methyl-5-((7-(2-(2,2,2-trifluoroethyl)thiazolo[5,4-d]pyrimidin-7-yl)-2,7-diazaspiro[4.4]nonan-2-yl)methyl)-1H-indole-2-carbonitrile]	< 0.1
CS(=O)(=O)Nc1ccc(CN2CCC3(CCN(c4ncnc5sc(CC(F)(F)F)nc45)C3)C2)cc1 (centres unmarked) [Example 84, N-(4-((7-(2-(2,2,2-trifluoroethyl)thiazolo[5,4-d]pyrimidin-7-yl)-2,7-diazaspiro[4.4]nonan-2-yl)methyl)phenyl)methanesulfonamide]	< 0.1
CC(C)CN1CC2(CCN(c3ccnc4ccc(CC(F)(F)F)cc34)CC2)C1 [Example 85, 4-(2-isobutyl-2,7-diazaspiro[3.5]nonan-7-yl)-6-(2,2,2-trifluoroethyl)quinoline]	≥ 1
FC(F)(F)Cc1ccc2nccc(N3CCC4(CC3)CN(CC3CC3)C4)c2c1 [Example 87, 4-(2-(cyclopropylmethyl)-2,7-diazaspiro[3.5]nonan-7-yl)-6-(2,2,2-trifluoroethyl)quinoline]	≥ 1

Second part, the compound after the results:

IC50 [µM]	Structure (SMILES)
0.1 to 1	CC(=O)N[C@H]1CC[C@H](CN2CCC3(CCN(c4ncnc5sc(CC(F)(F)F)cc45)C3)C2)CC1 (some centres unmarked) [Example 47, N-((1r,4r)-4-((7-(6-(2,2,2-trifluoroethyl)thieno[2,3-d]pyrimidin-4-yl)-2,7-diazaspiro[4.4]nonan-2-yl)methyl)cyclohexyl)acetamide]
0.1 to 1	O=C(C1CCCNC1)N1CCC2(CCN(c3ncnc4sc(CC(F)(F)F)cc34)C2)C1 (centres unmarked) [Example 55, piperidin-3-yl(7-(6-(2,2,2-trifluoroethyl)thieno[2,3-d]pyrimidin-4-yl)-2,7-diazaspiro[4.4]nonan-2-yl)methanone]
≥ 1	FC(F)(F)Cc1cc2c(N3CC4(CN(CC5COC5)C4)C3)ncnc2s1 [Example 73, 4-(6-(oxetan-3-ylmethyl)-2,6-diazaspiro[3.3]heptan-2-yl)-6-(2,2,2-trifluoroethyl)thieno[2,3-d]pyrimidine]
≥ 1	FC(F)(F)Cc1cc2c(N3CC4(CN(CC5CC(F)(F)C5)C4)C3)ncnc2s1 [Example 74, 4-(6-((3,3-difluorocyclobutyl)methyl)-2,6-diazaspiro[3.3]heptan-2-yl)-6-(2,2,2-trifluoroethyl)thieno[2,3-d]pyrimidine]
0.1 to 1	O=C(C1CCCNC1)N1CC2(C1)CN(c1ncnc3sc(CC(F)(F)F)cc13)C2 (centres unmarked) [Example 78, piperidin-3-yl(6-(6-(2,2,2-trifluoroethyl)thieno[2,3-d]pyrimidin-4-yl)-2,6-diazaspiro[3.3]heptan-2-yl)methanone]
≥ 1	CC(C)N1CC2(CCN(c3ncnc4sc(CC(F)(F)F)nc34)CC2)C1 [Example 80, 7-(2-isopropyl-2,7-diazaspiro[3.5]nonan-7-yl)-2-(2,2,2-trifluoroethyl)thiazolo[5,4-d]pyrimidine]
≥ 1	CC(C)CN1CC2(CCN(c3ncnc4sc(CC(F)(F)F)nc34)CC2)C1 [Example 81, 7-(2-isobutyl-2,7-diazaspiro[3.5]nonan-7-yl)-2-(2,2,2-trifluoroethyl) thiazolo[5,4-d]pyrimidine]
0.1 to 1	FC(F)(F)Cc1nc2c(N3CCC4(CCN(Cc5ccccc5)C4)C3)ncnc2s1 (centres unmarked) [Example 82, 7-(7-benzyl-2,7-diazaspiro[4.4]nonan-2-yl)-2-(2,2,2-trifluoroethyl)thiazolo[5,4-d]pyrimidine]
